# Reference: PubChem BioAssay AID1259407 (Chemical Carcinogenesis Research Information System (CCRIS), 2018)
# Calls of active or inactive are those of the source. How the calls were made is not given here.
# Test system: CCRIS mutagenicity, Ames/micronucleus/aberration tests
# Test: CCRIS mutagenicity studies
# [1] = Test System: AMES SALMONELLA TYPHIMURIUM, Strain/Indicator: TA98, Metabolic Activation: HAMSTER, LIVER, S-9, AROCLOR 1254, Method: STANDARD PLATE
# [2] = Test System: AMES SALMONELLA TYPHIMURIUM, Strain/Indicator: TA98, Metabolic Activation: NONE, Method: STANDARD PLATE
# [3] = Test System: AMES SALMONELLA TYPHIMURIUM, Strain/Indicator: TA98, Metabolic Activation: RAT, LIVER, S-9, AROCLOR 1254, Method: STANDARD PLATE
# [4] = Test System: AMES SALMONELLA TYPHIMURIUM, Strain/Indicator: TA100, Metabolic Activation: HAMSTER, LIVER, S-9, AROCLOR 1254, Method: STANDARD PLATE
# [5] = Test System: AMES SALMONELLA TYPHIMURIUM, Strain/Indicator: TA100, Metabolic Activation: NONE, Method: STANDARD PLATE
# [6] = Test System: AMES SALMONELLA TYPHIMURIUM, Strain/Indicator: TA100, Metabolic Activation: RAT, LIVER, S-9, AROCLOR 1254, Method: STANDARD PLATE
# [7] = Test System: AMES SALMONELLA TYPHIMURIUM, Strain/Indicator: TA1535, Metabolic Activation: NONE, Method: STANDARD PLATE
# [8] = Test System: AMES SALMONELLA TYPHIMURIUM, Strain/Indicator: TA1537, Metabolic Activation: NONE, Method: STANDARD PLATE
# [9] = Test System: MOUSE LYMPHOMA, Strain/Indicator: L5178Y (TK+/TK-), Metabolic Activation: NONE, Method: SUSPENSION/PLATE
# [10] = Test System: MOUSE LYMPHOMA, Strain/Indicator: L5178Y (TK+/TK-), Metabolic Activation: RAT, LIVER, S-9, AROCLOR 1254, Method: SUSPENSION/PLATE
# [11] = Test System: AMES SALMONELLA TYPHIMURIUM, Strain/Indicator: TA100, Metabolic Activation: RAT, LIVER, S-9, Method: STANDARD PLATE
compound,measurement,setting,value
CCOC(=O)CC(=O)CCl,mutagenic call,[1],inactive; negative
same,mutagenic call,[2],inactive; negative
same,mutagenic call,[3],inactive; negative
same,mutagenic call,[4],inactive; negative
same,mutagenic call,[5],inactive; negative
same,mutagenic call,[6],inactive; negative
same,mutagenic call,"Test System: AMES SALMONELLA TYPHIMURIUM, Strain/Indicator: TA1535, Metabolic Activation: HAMSTER, LIVER, S-9, AROCLOR 1254, Method: STANDARD PLATE",inactive; negative
same,mutagenic call,[7],inactive; negative
same,mutagenic call,"Test System: AMES SALMONELLA TYPHIMURIUM, Strain/Indicator: TA1535, Metabolic Activation: RAT, LIVER, S-9, AROCLOR 1254, Method: STANDARD PLATE",inactive; negative
same,mutagenic call,"Test System: AMES SALMONELLA TYPHIMURIUM, Strain/Indicator: TA1537, Metabolic Activation: HAMSTER, LIVER, S-9, AROCLOR 1254, Method: STANDARD PLATE",inactive; negative
same,mutagenic call,[8],inactive; negative
same,mutagenic call,"Test System: AMES SALMONELLA TYPHIMURIUM, Strain/Indicator: TA1537, Metabolic Activation: RAT, LIVER, S-9, AROCLOR 1254, Method: STANDARD PLATE",inactive; negative
same,mutagenic call,"Test System: AMES SALMONELLA TYPHIMURIUM, Strain/Indicator: TA1538, Metabolic Activation: HAMSTER, LIVER, S-9, AROCLOR 1254, Method: STANDARD PLATE",inactive; negative
same,mutagenic call,"Test System: AMES SALMONELLA TYPHIMURIUM, Strain/Indicator: TA1538, Metabolic Activation: NONE, Method: STANDARD PLATE",inactive; negative
same,mutagenic call,"Test System: AMES SALMONELLA TYPHIMURIUM, Strain/Indicator: TA1538, Metabolic Activation: RAT, LIVER, S-9, AROCLOR 1254, Method: STANDARD PLATE",inactive; negative
same,mutagenic call,[9],active; positive. reevaluation of results: positive
same,mutagenic call,[10],active; positive. reevaluation of results: positive
COc1ccc(CN2C3c4ccccc4-c4ccccc4C32)cc1 (stereo not drawn),mutagenic call,[5],active; positive
CCC1(CC(=O)O)OCCc2c1[nH]c1c(C)cccc21 (stereo not drawn),mutagenic call,[2],inactive; negative
same,mutagenic call,"Test System: AMES SALMONELLA TYPHIMURIUM, Strain/Indicator: TA98, Metabolic Activation: RAT, LIVER, S-9, Method: STANDARD PLATE",inactive; negative
same,mutagenic call,[5],inactive; negative
same,mutagenic call,[11],inactive; negative
same,mutagenic call,[7],inactive; negative
same,mutagenic call,"Test System: AMES SALMONELLA TYPHIMURIUM, Strain/Indicator: TA1535, Metabolic Activation: RAT, LIVER, S-9, Method: STANDARD PLATE",inactive; negative
same,mutagenic call,[8],inactive; negative
same,mutagenic call,"Test System: AMES SALMONELLA TYPHIMURIUM, Strain/Indicator: TA1537, Metabolic Activation: RAT, LIVER, S-9, Method: STANDARD PLATE",inactive; negative
same,mutagenic call,"Test System: E. COLI, Strain/Indicator: WP2 UVRA, Metabolic Activation: NONE, Method: STANDARD PLATE",inactive; negative
same,mutagenic call,"Test System: E. COLI, Strain/Indicator: WP2 UVRA, Metabolic Activation: RAT, LIVER, S-9, Method: STANDARD PLATE",inactive; negative
N[C@@H](CS)C(=O)O,mutagenic call,"End Point: IN VIVO MICRONUCLEUS, Test System: BONE MARROW POLYCHROMATIC ERYTHROCYTES, Species: MOUSE, Strain/Sex: DDY/MALE, Route: IP",inactive; negative
same,mutagenic call,"Test System: AMES SALMONELLA TYPHIMURIUM, Strain/Indicator: TA92, Metabolic Activation: HOMOGENIZED V-79, Method: STANDARD PLATE",active; positive
same,mutagenic call,"Test System: AMES SALMONELLA TYPHIMURIUM, Strain/Indicator: TA92, Metabolic Activation: NONE, Method: STANDARD PLATE",active; positive
same,mutagenic call,"Test System: AMES SALMONELLA TYPHIMURIUM, Strain/Indicator: TA92, Metabolic Activation: RAT, KIDNEY, S-9, Method: PREINCUBATION",active; positive
same,mutagenic call,"Test System: AMES SALMONELLA TYPHIMURIUM, Strain/Indicator: TA92, Metabolic Activation: RAT, KIDNEY, S-9, Method: STANDARD PLATE",active; positive
same,mutagenic call,"Test System: AMES SALMONELLA TYPHIMURIUM, Strain/Indicator: TA92, Metabolic Activation: RAT, LIVER, S-9, Method: STANDARD PLATE",active; positive
same,mutagenic call,"Test System: AMES SALMONELLA TYPHIMURIUM, Strain/Indicator: TA97, Metabolic Activation: RAT, KIDNEY, S-9, Method: PREINCUBATION",active; positive
same,mutagenic call,"Test System: AMES SALMONELLA TYPHIMURIUM, Strain/Indicator: TA97, Metabolic Activation: RAT, KIDNEY, S-9, Method: STANDARD PLATE",active; positive
same,mutagenic call,[1],active; positive
same,mutagenic call,[3],active; positive
same,mutagenic call,[4],active; positive
same,mutagenic call,[5],active; positive
same,mutagenic call,"Test System: AMES SALMONELLA TYPHIMURIUM, Strain/Indicator: TA100, Metabolic Activation: RAT, KIDNEY, S-9, Method: PREINCUBATION",active; positive
same,mutagenic call,"Test System: AMES SALMONELLA TYPHIMURIUM, Strain/Indicator: TA100, Metabolic Activation: RAT, KIDNEY, S-9, Method: STANDARD PLATE",active; positive
same,mutagenic call,[6],active; positive
same,mutagenic call,[11],active; positive
same,mutagenic call,"Test System: AMES SALMONELLA TYPHIMURIUM, Strain/Indicator: TA102, Metabolic Activation: NONE, Method: STANDARD PLATE",active; positive
same,mutagenic call,"Test System: AMES SALMONELLA TYPHIMURIUM, Strain/Indicator: TA102, Metabolic Activation: RAT, KIDNEY, S-9, Method: PREINCUBATION",active; positive
same,mutagenic call,"Test System: AMES SALMONELLA TYPHIMURIUM, Strain/Indicator: TA104, Metabolic Activation: RAT, KIDNEY, S-9, Method: PREINCUBATION",active; positive
same,mutagenic call,"Test System: AMES SALMONELLA TYPHIMURIUM, Strain/Indicator: TA104, Metabolic Activation: RAT, KIDNEY, S-9, Method: STANDARD PLATE",inactive; negative
same,mutagenic call,"Test System: AMES SALMONELLA TYPHIMURIUM, Strain/Indicator: TA1535, Metabolic Activation: RAT, KIDNEY, S-9, Method: PREINCUBATION",inactive; negative
same,mutagenic call,"Test System: AMES SALMONELLA TYPHIMURIUM, Strain/Indicator: TA1537, Metabolic Activation: RAT, KIDNEY, S-9, Method: PREINCUBATION",inactive; negative
same,mutagenic call,"Test System: CHINESE HAMSTER V-79, Strain/Indicator: V-79/6-THIOGUANINE, Metabolic Activation: NONE, Method: STANDARD PLATE",inactive; negative
same,mutagenic call,[9],active; positive. reevaluation of results: positive
same,mutagenic call,[10],active; positive. reevaluation of results: positive
